Marks after values point to notes of the source that are not given here.
Tests used:
TNF-α [1] = assay: LPS-stimulated TNF-α production in human whole blood (ELISA); format: cell-based; details: for TNF-α plasma + LPS: 48 h preincubation, LPS 10 μg/ml 20 h
Description: Blood and buffy coat fractions were supplied by the Scottish National Blood Transfusion Service (SNBTS), Glasgow, UK. Ficoll Histopaque (1.077 g/l), Lipopolysaccharide (from Salmonella abortus equi) was purchased from Sigma-Aldrich Co. Ltd. (UK). PGE was from Cayman Chemical Co. (Ann Arbor, MI). Human TNF-α antibody pairs for TNF-α ELISA assays was from Invitrogen/Life Sciences Europe. All drugs were dissolved in RPMI 1640 medium from Gibco BRL, UK.
Blood was used without any further treatment following donation. It was kindly supplied by the Scottish National Blood Transfusion Service from normal healthy donors as defined by ensuring they all tested negative for HIV, hepatitis B & C, CMV and parasitic diseases such as malaria (as tested by the National Blood Transfusion service). They were also confirmed by our laboratory to be free of acute inflammatory disease at the time the blood was taken by measuring the basal level of TNF-α which was always […].
Aliquots (800 μl) of whole blood were incubated with the compound dissolved in RPMI 1640, as indicated in the results, for the appropriate preincubation period after which LPS was added and incubations continued for a further 20 hr at 37° C. in a humidified (100%) atmosphere of 5% CO2 in air. At the end of the incubation period, supernatants from either plasma or culture medium were collected by centrifugation at 10,000 g for 30 seconds at room temperature and TNF-α levels measured using a human TNF-α ELISA system (BioSource Europe S.A., Belgium, supplied by Invitrogen).
(§1) Table showing the effect of various idoBR1 concentrations on LPS-stimulated TNF-α production in human blood. Whole blood was preincubated for 48 h with varying concentrations of idoBR1 after which LPS (10 μg/ml) was added and incubations continued for a further 20 h. Following incubation at 37° C. (5% CO2, 100% humidity) plasma was collected from blood by centrifugation and the levels of TNF-α In plasma samples were measured by ELISA.
as §1, with “various cucumber extract (0.09% idoBR1)” for “various idoBR1”, “of cucumber Q-Actin extract” for “of idoBR1”, “TNF-α in” for “TNF-α In”, “ELISA. Values represent the means±s.d. of n=3. * denotes P<0.05 compared to LPS alone.” for “ELISA.”

IL-1β = IL-1β ELISA in LPS stimulated THP-1 cells; format: cell-based, human; details: for % reduction in IL-1 β levels: vs LPS control
Description: The cells in an 80% confluence culture flask were aspirated and centrifuged at 1500 rpm for 5 mins. The cell pellet was then resuspended in 1 ml of RPMI complete media and 1×10^5 cells/well seeded to each well of the 96 well microtiter plate. After 24 hrs incubation, PMA (10 ng/ml) was added to the 96 well plate to differentiate THP-1 cells to determine the TNF-α production, THP-1 cells were pretreated for 1 hr with idoBR1 or cucumber extract-Q-actin (batch no. […] Post incubation, the cell supernatant from each of the wells was aspirated into sterile micro centrifuge tubes and centrifuged at 1000 rpm for 2-3 mins. The cell supernatant was then used for evaluation of presence of cytokines using ELISA.
ELISA plates coated with antibodies for IL-12, IL-1β, or IL-10 (R&D Systems, USA) were used for the following study. To each well 50 μL of Assay Diluent RD1F was added after mixing well. 200 μL of sample (idoBR1 or extract), or control per well was added and covered with an adhesive strip. Following incubation for 2 hours at room temperature each well was aspirated and washed 4 times with Wash Buffer (400 μl). After the last wash, any remaining Wash Buffer was removed by aspirating or decanting. The plates were inverted and blotted against clean paper towels. To each well 200 μl of appropriate human conjugate was added and these then covered with a new adhesive strip and incubated for 1 hour at room temperature. The aspiration/wash was then repeated. 200 μL of Substrate Solution was then added to each well and further incubated for 20 minutes at room temperature protected from light. 50 μL of Stop Solution was added to each well. The colour in the wells was changed from blue to yellow. OD was measured within 30 minutes at 450 nm.

TNF-α [2] = assay: TNF-α production by LPS-stimulated BV-2 microglial cells; format: cell-based, murine; details: 24 hours
Description: idoBR1 was used in cell cultures of murine microglial cell line BV-2 at 0, 20, 40 and 80 μg/ml plus and minus sub-optimal LPS. Production of TNF-α and nitrite was measured after 24 hours.

TNF-α [3] = assay: Production of TNF-α by human monocytic cell line THP-1; format: cell-based; details: Homo sapiens, THP-1
Description: THP-1 cells are commercially available. Cultured cells can be placed in RPMI complete medium in microtitre plates (e.g. […] in 96 well plates) and after 24 hrs incubation, PMA (10 ng/mi) added to 96 well plate to differentiate THP-1 cells and to determine the effects on TNF-α and IL-10 production. The cells should be pre-treated with cucumber extract at, for example, 200 μg/ml to 25 μg/ml followed by 2 hr LPS (100 ng/ml) stimulation. Post incubation, the cell supernatant is aspirated from each of the wells into sterile micro centrifuge tubes and centrifuged at 1000 rpm for 2-3 mins to settle any cells if present. The cell supernatant is then used for evaluation of presence of TNF-α or IL-10 using ELISA. Sandwich ELISA plates coated with suitable antibody are widely available (e.g. R&D Systems, USA).
A second study indicated even greater activity for idoBR1 in human blood (significant at 0.01 μM) with pre-incubation. […] The data clearly indicate that idoBR1 can inhibit the production of TNF-α in human blood. Thus, it appears that it may be a potent anti-inflammatory agent. It also appears that it may be acting via a novel mechanism distinct from the steroid receptor pathways.

O=C(O)[C@@H]1NC[C@H](O)[C@@H](O)[C@@H]1O [idoBR1, (2R,3R,4R,5S)-3,4,5-trihydroxypiperidine-2-carboxylic acid]
effective concentration on LPS-induced TNF-α in human blood (TNF-α [1]): below 10 μM | TNF-α plasma + LPS (TNF-α [1]; 0.01 μM): 1680 pg/mL | TNF-α plasma + LPS (TNF-α [1]; 0.1 μM): 950* pg/ml | TNF-α plasma + LPS (TNF-α [1]; 1 μM): 490* pg/ml | TNF-α plasma + LPS (TNF-α [1]; 10 μM): 500* pg/ml | TNF-α plasma (no LPS) (TNF-α [1]; 10 μM, no LPS): 200 pg/mL | IC50 (TNF-α [1]; 48 hr preincubation, human blood): 182 nM | concentration with significant activity in human blood (TNF-α [1]; second study, with pre-incubation): 0.01 µM | IL-1β (IL-1β; 12.5 μg/mL): 133.30 pg/mL | % reduction in IL-1 β levels (IL-1β; 12.5 μg/mL): 9.31% | IL-1β (IL-1β; 25 μg/mL): 127.63 pg/mL | % reduction in IL-1 β levels (IL-1β; 25 μg/mL): 13.17% | IL-1β (IL-1β; 50 μg/mL): 120.36 pg/mL | % reduction in IL-1 β levels (IL-1β; 50 μg/mL): 18.12% | IL-1β (IL-1β; 100 μg/mL): 111.60 pg/mL | % reduction in IL-1 β levels (IL-1β; 100 μg/mL): 24.07% | TNF-α production (TNF-α [2]; 20 μg/ml + LPS): 500** pg/ml | TNF-α production (TNF-α [2]; 40 μg/ml + LPS): 470** pg/ml | TNF-α production (TNF-α [2]; 80 μg/ml + LPS): 410*** pg/ml | inhibition at 10 µM (TNF-α [3]; 10 μM): > 50% | IC50 (TNF-α [3]; 48 hr preincubation, read-out: IC50 for inhibition of the production of TNF-α by THP-1 cells): 27 nM

From US12558348B2, “Bioactive phytochemicals” (Phytoquest Limited, priority 2019, dated 2026)
